Assay results: US20230255974A1, “USE OF THYROMIMETICS FOR THE TREATMENT OF CANCER” (THE UNIVERSITY OF VERMONT, priority 2020, published 2023)
“Also recorded” adds a separate entry of the source. Where two headings read alike, the source gives them in different places.

How the values were obtained:
[1] = test system: SW1736 cells (SW-EV, SW-TRβ); experiment: Apoptosis assay (PARP1 and caspase 3 cleavage, immunoblot); assay type: cell-based, human; conditions: SW-TRβ
Description: Immunoblot Analysis. […] Proteins were resolved by polyacrylamide gel electrophoresis on 10% sodium dodecyl sulfate gels EC60752 (Life Technologies) and immobilized onto nitrocellulose membranes (GE Healthcare) by electroblot (Bio-Rad Laboratories). Specific proteins were detected by immunoblotting with the indicated antibodies (Table 4); immunoreactive proteins were detected by enhanced chemiluminescence (Thermo Scientific) on a ChemiDoc XRS+ (Bio-Rad Laboratories).
Apoptosis Assay. Cells were plated at a density of 50,000 cells/well and treated with vehicle (1 N NaOH) or 10^−8 M T3. After 5 days the cells were lysed for analysis by immunoblot. Poly (ADP-ribose) polymerase 1 (PARP1) and Caspase 3 cleavage were assessed to measure apoptotic signaling.
Immunoblot Analysis. […] Proteins were resolved by polyacrylamide gel electrophoresis on 10% sodium dodecyl sulfate gels EC60752 (Thermo Fisher Scientific) and immobilized onto nitrocellulose membranes (GE Healthcare, Chicago, Ill., USA) by electroblot (Bio-Rad Laboratories, Hercules, Calif., USA). Specific proteins were detected by immunoblotting with the indicated antibodies (Table 4); immunoreactive proteins were detected by enhanced chemiluminescence (Thermo Scientific) on a ChemiDoc XRS+ (Bio-Rad Laboratories).

[2] = test system: SW1736 cells (SW-EV, SW-TRβ); assay type: cell-based, human; conditions: for ATC cell death: GC-1 10^−8 M; for reduction in cell growth (AUC of growth curve): GC-1 10^−8M, 4 days
[3] = test system: SW1736, 8505C, OCUT2, and KTC-2 cells; experiment: Cell migration by scratch (wound healing) assay, inhibitors with or without GC-1; assay type: cell-based, human
Protocol: Migration Assay. Cell migration was determined by wound healing assay. Cells were plated and allowed to grow to 100% confluency. Four hours prior to scratching, cells were treated with […] Mitomycin C. A scratch was performed with a P1000 pipette tip and debris was washed away with PBS. […] Images were obtained at 0, 16, 24, 48, and 72 hours or until 100% wound closure, depending on the cell type. The wound closure was measured using the ImageJ macro “Wound Healing Tool” (https://github.com/MontpellierRessourcesImagerie/imagej_macros_and_scripts/wiki/Wound-Healing-Tool). Percent closure was calculated relative to the area of the initial scratch.

MCF7 = experiment: Mammosphere growth, Luminal A breast cancer cells; assay type: cell-based
[4] = test system: MDA-MB-468 cells (EV, TRβ); conditions: triple negative breast cancer cells with low TRβ expression
Protocol: Triple negative breast cancer were examined next. […] TNBC cancers and other advanced solid tumors have lower endogenous levels of expression of TRβ. […] Cell migration was measured by scratch assay (FIG. 28). […] Data are mean+/−SD; *indicates p<0.05 determined by t-test.

KTC-2 [5] = experiment: Xenograft model of anaplastic thyroid tumor; assay type: in vivo, SCID female mice; conditions: KTC-2 subcutaneous xenograft, GC-1 0.3 mg/Kg, Buparlisib 5 mg/Kg, approximately 6 week study
Protocol: Doses of Buparlisib tested in xenograft studies range from 5 mg/Kg to 20 mg/Kg.
Drugs were prepared at concentrations suitable for intraperitoneal (i.p.) injection of 5 μL/g body weight. […] Drug stocks were prepared by dissolving sobetirome and Sob-AM2 at 1 mg/mL in dimethyl sulfoxide (DMSO). […] Vehicles were prepared with 20% DMSO in saline.”
Buparlisib was used as a 5 mg/kg buparlisib treatment (recommended by Novartis). Buparlisib suspension was prepared in 0.5% methyl cellulose and 0.5% Tween20.
Tumors were established by subcutaneous injection of 5×10^6 tumor cells in 100 μL of phosphate-buffered saline into the flank region into SCID female mice. Thyroid cancer occurs in females ˜4× more often than in males. As funding is available; both males and females will be tested.
The study was approximately a 6 week study. Tumor mass was measured, and tumors and tissues were saved for IHC and RNAseq.

[6] = test system: SW1736 cells (SW-EV, SW-TRβ); conditions: SW-TRβ1, GC-1 10^−8M
Protocol: Tumorsphere Assay. Cancer stem cell tumorspheres formed from ATC cells (thyrospheres) were used to assess self-renewal and sphere-forming efficiency. For generating thyrospheres, adherent monolayer cells were dissociated with Trypsin-EDTA, and single cells were moved to round-bottom ultra-low attachment 24-well plates at a density of 1000 cells/well (Corning). […] Where indicated, adherent cells were treated with 0.5 μM Buparlisib, 0.5 μM Alpelisib, 1 nM Palbociclib, 5 μM Sorafenib, or vehicle for 72 hours prior to thyrosphere-forming assay. […] Thyrospheres grew for seven days and were then counted with an inverted microscope.

[7] = test system: SW1736, 8505C, OCUT2, and KTC-2 cells; conditions: GC-1 concentrations higher than 10^-8M
[8] = test system: MDA-MB-468 cells (EV, TRβ); experiment: Relative cell growth by cell counting, triple negative breast cancer cells; assay type: cell-based; conditions: MDA-MB-468-TRβ, 10 nM GC-1, 8 days
Description: MDA-MB-468 cells were transduced with empty vector (EV) (FIGS. 29A, 29C) or thyroid hormone receptor beta (TRβ) (FIGS. 29B, 29D) and maintained in complete media. […] Data are mean+/−SD; * indicates p<0.05 determined by t-test.

[9] = test system: SW1736 cells (SW-EV, SW-TRβ); experiment: Buparlisib with or without GC-1, cell viability/growth, 24 hr; assay type: cell-based, human
Protocol: SW1736 cells transduced with lentiviral vector (EV) or lentiviral vector containing TRβ (TRβ) were treated with buparlisib (0 μM, 0.1 μM, 1 μM, or 10 μM) for 24 hours.

[10] = test system: MDA-MB-468 cells (EV, TRβ); experiment: Mammosphere growth, triple negative breast cancer cells; assay type: cell-based
Description: Data are mean+/−SD; * indicates p<0.05 determined by t-test.

PI3K = PI3K activity by pAkt and p mTOR immunoblot; assay type: cell-based, human; conditions: SW-TRβ vs SW-EV, LY294002 24 hr, T3 10^−8 M
Protocol: Immunoblot Analysis. Proteins were isolated from whole cells in lysis buffer (20 mM Tris-HCl [pH 8], 137 mM NaCl, 10% glycerol, 1% Triton X-100, and 2 mM EDTA) containing Protease Inhibitor Cocktail 78410 (Thermo Scientific). Proteins were resolved by polyacrylamide gel electrophoresis on 10% sodium dodecyl sulfate gels EC60752 (Life Technologies) and immobilized onto nitrocellulose membranes (GE Healthcare) by electroblot (Bio-Rad Laboratories). Specific proteins were detected by immunoblotting with the indicated antibodies (Table 4); immunoreactive proteins were detected by enhanced chemiluminescence (Thermo Scientific) on a ChemiDoc XRS+ (Bio-Rad Laboratories).

[11] = test system: SW1736 cells (SW-EV, SW-TRβ); experiment: LY294002 inhibition of ATC cell growth; assay type: cell-based; conditions: Homo sapiens
NthyOri = experiment: LY294002 growth of normal-like thyroid cells; assay type: cell-based; conditions: normal-like thyroid cells NthyOri in which TRβ is expressed
[12] = test system: SW1736 cells (SW-EV, SW-TRβ); experiment: LY294002 inhibition of ATC cell migration; assay type: cell-based, human; conditions: presence of liganded TRβ (SW-TRβ vs SW-EV)
Protocol: Migration Assay. Cell migration was determined by wound healing assay. Cells were plated and allowed to grow to 100% confluency. Two hours prior to scratching, cells were treated with […] Mitomycin C. A scratch was performed with a P1000 pipette tip and debris was washed away with PBS. Migration media was supplemented with 10^−8 M T3. Images were obtained at 0, 24, 48, and 72 hours. Wound closure was measured using ImageJ macro “Wound Healing Tool” (http://dev.mri.cnrs.fr/projects/imagej-macros/wiki/Wound_Healing_Tool). Values were normalized so that the initial scratch was 0% closure.
TRβ also enhances PI3K inhibitor LY294002 inhibition of ATC cell growth and cell migration. […] LY294002 induces a 50% reduction in growth of normal-like thyroid cells NthyOri in which TRβ is expressed. […] Liganded TRβ suppresses ATC cell growth and migration as a tumor suppressor and critically enhances the effectiveness of a potential therapeutic agent.

SW1736 = experiment: Cell growth with STAT1 activator 2-NP; assay type: cell-based, human; conditions: 0-50 μM 2-NP, 24 hours
Protocol: (§1) Growth Assays. Cell growth was measured either through live cell imaging or by cell counting at discrete points. Live cell imaging was used to assess the growth kinetics of SW-EV and SW-TRβ. To perform live cell imaging, 5000 cells were plated per well in 24 well plates. After 24 hours in phenol red free, charcoal stripped media, media was supplemented with either 10^−8 M T3 or equivolume vehicle (NaOH). Every two hours cells were imaged with a Lionheart automated microscope (BioTek) and quantified with Gen5 software (BioTek). The cells entered the log phase of growth at approximately 48 hours, and the portion of the curve following this point was used to calculate the doubling time of the cells. In order to measure growth manually, 25,000 cells were plated per well in a six well plate. Cells were grown in full thyroid media with the addition of 2-(1,8-Naphthyridin-2-yl)phenol (2-NP) (Abcam) or vehicle (DMSO). Every 24 hours cell counts were assessed by hemocytometer.
(§2) STAT1 has anti-proliferative activity, raising the question whether it can be exploited pharmacologically to reduce ATC growth. Baseline expression of key genes in the JAK1-STAT1 pathway and TR isoform levels (TRβ and TRα) in 3 additional anaplastic thyroid cancer cell lines are illustrated in FIG. 10C.

KTC-2 [13] = experiment: Cell growth with STAT1 activator 2-NP; assay type: cell-based; conditions: 0-50 μM 2-NP, 24 hours
Protocol: as §1, §2

OCUT-2 = experiment: Cell growth with STAT1 activator 2-NP; assay type: cell-based; conditions: 0-50 μM 2-NP, 24 hours
Protocol: as §1, §2

With `Cc1cc(OCC(=O)O)cc(C)c1Cc1ccc(O)c(C(C)C)c1` [GC-1, 2-[4-[(4-hydroxy-3-propan-2-ylphenyl)methyl]-3,5-dimethylphenoxy]acetic acid] as the compound, how does the “cleaved PARP and cleaved caspase 3” value ([1]; GC-1, 5 days) read?
Its value is “significantly increased the presence of cleaved PARP and cleaved caspase 3”.

And the “apoptosis (cleaved PARP and caspase)” value ([1]; five days)?
Its value is “induces apoptosis”.

What about the ATC cell death ([2]; SW1736 with endogenous TRβ (EV)) of the same compound?
The ATC cell death was “induces ATC cell death”.

And the “reduction in cell growth (AUC of growth curve)” value ([2]; SW-EV)?
The value was 50%.

And the ATC cell death ([2]; SW-TRβ (lentiviral transduction))?
The ATC cell death was “amplified with higher levels of TRβ”.

And the “reduction in cell growth (AUC of growth curve)” value ([2]; SW-TRβ)?
The value was 75%.

What about the “wound closure, agent alone” value ([3]; GC-1 10^−8M or inhibitor alone) of the same compound?
The value was “able to prevent wound closure of all tumor cell lines with similar success as each inhibitor alone”.

And the mammosphere formation (MCF7; MCF7, 10 nM GC-1 alone)?
The mammosphere formation was “could reduce mammosphere formation”.

And the cell migration [4]?
Its cell migration is “able to slow migration”.

And the metastases (KTC-2 [5])?
Its metastases is “no visually detectable metastases”.

What about the tumor vascularization (KTC-2 [5]) of the same compound?
The tumor vascularization was “minimal vascularization”.

What about the “reduction in thyrosphere formation” value [6] of the same compound?
Its value is “greater than 80%”.

What about the cell toxicity [7] of the same compound?
Its cell toxicity is “cause cell toxicity”.

For `CC(=O)c1c(C)c2cnc(Nc3ccc(N4CCNCC4)cn3)nc2n(C2CCCC2)c1=O` [Palbociclib, 6-acetyl-8-cyclopentyl-5-methyl-2-[(5-piperazin-1-ylpyridin-2-yl)amino]pyrido[6,5-d]pyrimidin-7-one], which “cell growth, combination with GC-1” value [8] is on record?
The value was “synergistic effect to reduce cell growth”.

With `Nc1cc(C(F)(F)F)c(-c2cc(N3CCOCC3)nc(N3CCOCC3)n2)cn1` [Buparlisib, 5-(2,6-dimorpholin-4-ylpyrimidin-4-yl)-4-(trifluoromethyl)pyridin-2-amine] as the compound, how does the toxicity to cells ([9]; 10 μM) read?
The toxicity to cells was “toxic”.

And the cell viability ([9]; SW-EV, buparlisib alone 0-10 μM)?
Its cell viability is “concentration dependent decrease in cell viability”.

And the “sensitivity of cell growth to buparlisib” value ([9]; SW-TRβ plus GC-1 10^−8M)?
Its value is “increase the sensitivity to buparlisib at 0.1 and 1 μM”.

What about the “EC50, cell viability” value ([9]; SW-TRβ vs SW-EV) of the same compound?
The value was “significantly reduced EC50”.

What about the “wound closure, inhibitor combined with GC-1” value ([3]; KTC-2 cells, GC-1 10^−8M plus 0.5 μM Buparlisib) of the same compound?
Its value is “exception”.

What about the “cell growth, combination with GC-1” value [8] of the same compound?
Its value is “synergistic effect to reduce cell growth”.

And the “mammosphere growth, Buparlisib in the presence of GC-1” value ([10]; 10 nM GC-1, 5 days)?
The value was “increases the efficacy of Buparlisib to reduced mammosphere growth”.

And the “reduction of effective Buparlisib in the presence of GC-1” value ([10]; mammospheres from MDA-MB-468-TRβ cells)?
The value was 50%.

What about the metastases (KTC-2 [5]) of the same compound?
Its metastases is “detectable metastases to the heart”.

What about the tumor growth (KTC-2 [5]) of the same compound?
The tumor growth was “smaller non-nodular growth”.

`O=c1cc(N2CCOCC2)oc2c(-c3ccccc3)cccc12` [LY294002, 2-(morpholin-4-yl)-8-phenyl-4H-chromen-4-one] was tested. Which “pAkt vs total Akt and p mTOR vs total mTOR” value (PI3K) did it give?
The value was “decreased pAkt compared with total Akt and decreased p mTOR compared with total mTOR”.

What about the EC50 ([11]; SW-1736, SW-EV (no TRβ re-expression), T3) of the same compound?
Its EC50 is 5.21 µM.

What about the EC50 ([11]; SW-1736, SW-EV, unit inferred) of the same compound?
Its EC50 is 5.21 µM.

And the EC50 ([11]; SW-1736, SW-TRβ, liganded (T3))?
The EC50 was 1.13 µM.

And the EC50 ([11]; SW-1736, SW-TRβ, liganded (T3), unit inferred)?
Its EC50 is 1.13 µM.

And the reduction in growth (NthyOri)?
Its reduction in growth is 50%.

What about the “inhibition of ATC cell migration” value [12] of the same compound?
The value was “enhances LY294002 inhibition of ATC cell migration”.

Which results are given for `Oc1ccccc1-c1ccc2cccnc2n1` [2-NP, 2-(1,8-naphthyridin-2-yl)phenol]?
reduction in cell growth (SW1736): recapitulates the effect of T3-TRβ; also recorded: most responsive; reduction in cell growth (KTC-2 [13]): recapitulates the effect of T3-TRβ; reduction in cell growth (OCUT-2): recapitulates the effect of T3-TRβ

How did the “effect of inhibitor in the presence of GC-1” value (MCF7; MCF7, 10 nM GC-1, 5 days) turn out when `CC/C(=C(\c1ccccc1)c1ccc(OCCN(C)C)cc1)c1ccccc1` [tamoxifen] was run?
Its value is “enhanced the effect”.
